From patent US20120122727A1, “IN VITRO METHOD FOR PREDICTING WHETHER A COMPOUND IS GENOTOXIC IN VIVO” (priority 2009, published 2012)

System: primary mouse hepatocytes
Test: Gene expression in primary mouse hepatocytes, GTX vs non-GTX (four-gene classifier, 24 h)
Description: Hepatocyte cells were incubated and exposed to a compound for 24 h before being harvested for RNA isolation.
The results of the gene expression analysis may then be fed into a statistical software package such as R, Splus, or Microsoft Excel. […] If none or only one of these criteria were met, no point was scored.
For each of the four genes mentioned in the table (1700007K13RIK, GAS2L3, SPC25, DDIT4L), a statistical comparison was made between the normalized expression data for these genes. […] If none or only one of these criteria were met, no point was scored.
For each compound, the sum of the scores for four genes is taken. If this score is 0, a compound can be believed not to be genotoxic. If this score is 1, 2, 3 or 4, a compound is genotoxic.
If none or only one of these criteria were met, no point was scored.

[1] = 24 h exposure, average of four replicates

With O=C(O)Cc1ccccc1Nc1c(Cl)cccc1Cl [DF, Diclofenac] the “Ratios of gene expression treated/untreated 1700007K13RIK” value was 0.09622, the “Ratios of gene expression treated/untreated DDIT4L” value was 0.1268 and the “Ratios of gene expression treated/untreated GAS2L3” value was −0.2839. For the same compound, the “Ratios of gene expression treated/untreated SPC25” value was 0.4079, the “score 1700007K13RIK” value [1] was 0 and the “score DDIT4L” value [1] was 0. The “score GAS2L3” value [1] was 0, the “score SPC25” value [1] was 0 and the Total score (sum of scores for four genes, 0 = not genotoxic, 1, 2, 3 or 4 = genotoxic) was 0.
